Experimental data: patent publication US8519007B2, “Use certain diterpene compounds in the treatment of androgen receptor-associated diseases” (Academia Sinica, priority 2008, dated 2013)

Columns and labels:
[1] = molecular target: T1, AR-LBD interaction with the full-length AR (Homo sapiens, UniProt P10275); test: Two-hybrid interaction assay in PC-3 cells; assay type: cell-based; conditions: 20 h
T1 construct: expressed in transfected cells; host or cells: PC-3
T1 sequence (P10275 669-900 limits assumed): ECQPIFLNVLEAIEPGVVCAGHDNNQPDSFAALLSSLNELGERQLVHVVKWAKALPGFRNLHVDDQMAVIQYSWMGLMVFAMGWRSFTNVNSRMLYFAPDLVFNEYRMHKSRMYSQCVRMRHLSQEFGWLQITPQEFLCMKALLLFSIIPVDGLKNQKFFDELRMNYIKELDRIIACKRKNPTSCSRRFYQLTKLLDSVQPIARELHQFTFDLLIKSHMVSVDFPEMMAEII
Experimental: Second, the AR-LBD interaction with the full-length AR can be detected by a two-hybrid interaction assay in PC-3 cells through transfection of GBD-AR-LBD and AR fused with the VP16 activation domain (AR-VP16). […] The transfected cells were treated with vehicle or various compounds for another 20 h. Luciferase activity was measured using the luciferase reporter gene assay system (Promega, Madison, Wis.) and normalized against respective Renilla luciferase values.

[2] = molecular target: T2, AR (Homo sapiens, UniProt P10275, T878A); test: AR nuclear translocation by confocal immunofluorescence in LNCaP cells; assay type: cell-based; conditions: steroid-deprived, 5 to 10 μM, 1 h
T2 construct: endogenous in cells; host or cells: LNCaP
T2 sequence (P10275 1-920 T878A): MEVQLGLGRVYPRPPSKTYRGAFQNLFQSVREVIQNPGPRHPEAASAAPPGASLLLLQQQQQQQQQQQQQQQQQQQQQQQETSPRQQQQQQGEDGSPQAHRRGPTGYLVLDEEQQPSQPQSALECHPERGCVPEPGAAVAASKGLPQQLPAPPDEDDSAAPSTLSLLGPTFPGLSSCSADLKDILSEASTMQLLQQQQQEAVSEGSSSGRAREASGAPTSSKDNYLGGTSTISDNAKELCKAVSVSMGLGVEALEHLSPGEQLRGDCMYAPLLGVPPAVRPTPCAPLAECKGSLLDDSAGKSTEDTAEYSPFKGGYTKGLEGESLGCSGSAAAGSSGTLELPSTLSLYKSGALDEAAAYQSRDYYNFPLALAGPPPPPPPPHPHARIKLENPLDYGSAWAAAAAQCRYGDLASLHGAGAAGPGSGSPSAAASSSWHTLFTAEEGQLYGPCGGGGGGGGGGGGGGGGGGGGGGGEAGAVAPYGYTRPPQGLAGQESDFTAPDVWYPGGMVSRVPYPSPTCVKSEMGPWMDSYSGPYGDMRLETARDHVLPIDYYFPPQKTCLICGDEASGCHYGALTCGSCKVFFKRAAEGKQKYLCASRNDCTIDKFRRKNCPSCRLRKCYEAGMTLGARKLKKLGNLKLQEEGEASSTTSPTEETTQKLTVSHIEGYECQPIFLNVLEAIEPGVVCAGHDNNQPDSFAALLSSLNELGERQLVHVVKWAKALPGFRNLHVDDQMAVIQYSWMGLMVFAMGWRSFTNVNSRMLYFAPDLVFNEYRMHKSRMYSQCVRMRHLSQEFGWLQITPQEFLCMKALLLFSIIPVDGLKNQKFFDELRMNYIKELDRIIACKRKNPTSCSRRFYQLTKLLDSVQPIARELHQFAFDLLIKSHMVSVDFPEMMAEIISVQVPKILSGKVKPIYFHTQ
Experimental: Specifically, LNCaP cells were grown in medium containing 5% charcoal-dextran stripped FBS on 12-mm coverslips for 48 h and then treated with vehicle or various compound treatments for another 1 h. Cells were fixed with 4% (v/v) paraformaldehyde on ice for 15 min, permeabilized with 0.2% (v/v) Triton X-100/PBS, and then washed with PBS three times. […] The samples were washed again and mounted in mounting medium (Vector, Burlingame, Calif.). The cellular location of AR was visualized by confocal microscopy (LSM 510 META, Carl Zeiss GmbH, Jena, Germany) and analyzed using the manufacturer's software.

[3] = system: NIH-3T3 cells; test: MTT cell viability; assay type: cell-based; conditions: NIH-3T3, concentrations above 10 μM, 48 h, versus LNCaP and 22Rv1
Experimental: The effects of HDHS on cell viability in various PCa cell lines including androgen-dependent LNCaP, androgen-responsive 22Rv1 cells, and androgen-independent PC-3 cells were tested and compared with untransformed fibroblast NIH-3T3 cells. PCa or NIH-3T3 cells (1×10^4 cells) were seeded into 96-well microtiter plates with 10% FBS culture medium. After 24 h, cells were incubated in 10% FBS medium containing different concentrations of HDHS or equivalent amounts of vehicle alone as control for 48 h. Cell viability was then determined by MTT assay, which quantitatively measures the metabolic activity of living cells.

[4] = system: LNCaP cells; test: Cell cycle distribution by propidium iodide flow cytometry; assay type: cell-based, human; conditions: 48 h
Experimental: The cell cycle of treated cells was examined by flow cytometry after cellular staining with propidium iodide. 5×10^5 cells were seeded into 6-well multidishes with 10% FBS culture medium for 48 h. […] Cells were trypsinized thereafter, washed twice with cold PBS, and centrifuged. The pellet was suspended in cold PBS and 1 mL of 70% ethanol at 4° C. overnight, washed twice with cold PBS, and digested with RNase (100 μg/mL final concentration) and stained with propidium iodide (10 μg/mL final concentration) for 30 min and analyzed by flow cytometry (EPICS XL-MCL, Beckman Coulter, Inc., Fullerton, Calif.).

[5] = system: LNCaP cells; test: Apoptosis by nucleosome release (cytoplasmic DNA fragmentation); assay type: cell-based, human; conditions: 5-10 μM, 24 h
Experimental: (§1) FIGS. 4A-B. HDHS induces apoptosis in AR-dependent PCa cells. A, Apoptosis of cytoplasmic DNA fragmentation in different cell lines treated with vehicle or indicated concentrations of HDHS for 24 h. Difference between the indicated pair of treatments was tested for statistic significance as marked. *, P≦0.05; **, P≦0.01. B, Activation of caspases and PARP in HDHS-induced apoptosis of LNCaP cells.
(§2) In light of the increase of sub-G1 populations by HDHS, apoptosis in treated cells was further analyzed via measurement of nucleosome release in PCa cells. […] 22Rv1 cells with AR expression are ablation-resistant but respond to androgen stimulation; HDHS led to their apoptosis.

[6] = system: PC-3 cells; test: as above; assay type: cell-based, human; conditions: PC-3, 5-10 μM, 24 h
Experimental: as §1, §2

## CC(C)c1cc2c(cc1O)[C@@]1(C)CCCC(C)(C)C1=C(O)C2=O [Compound 2, 6,12-dihydroxyabieta-5,8,11,13-tetraen-7-one]
[1]
  effect on DHT-induced two-hybrid interaction: competitively inhibited
[2]
  AR nuclear localization: significant AR accumulation in the nucleus
[3]
  cell viability (MTT): far less pronounced
[4]; 2.5 μM
  G0-G1 phase cell population: 62.6 ± 2.8 %
  G2-M phase cell population: 21.1 ± 2.4 %
  S phase cell population: 11.5 ± 2.1 %
  Sub-G1 phase cell population: 0.8 ± 0.4 %
[4]; 5 μM
  G0-G1 phase cell population: 66.9 ± 2.0 %
  G2-M phase cell population: 18.7 ± 3.5 %
  S phase cell population: 8.1 ± 1.8 %
  Sub-G1 phase cell population: 3.9 ± 0.7 %
[4]; 10 μM
  G0-G1 phase cell population: 45.1 ± 3.1 %
  G2-M phase cell population: 20.2 ± 2.1 %
  S phase cell population: 6.8 ± 2.4 %
  Sub-G1 phase cell population: 24.3 ± 3.1 %
[5]
  apoptosis (nucleosome release): significantly induced
[6]
  apoptosis (nucleosome release): not in PC-3 cells
